Source: the OligoGym collection
Values joined by “and” are separate entries in the source; they are usually repeats but may differ in a detail not shown here. Equal entries are not always repeated. After the bases stand the sugars from the 5' end (letter, count) and the backbone: PS all phosphorothioate, else s phosphorothioate and o phosphodiester by linkage. Methylation of C is not given here. e = 2'-O-(2-methoxyethyl) (MOE); d = 2'-deoxy (DNA)

Molecular target: DGAT2
Settings: ASO

Row | Sequence | target mRNA inhibition (HepG2, 0.12 µM) | target mRNA inhibition (HepG2, 2.5 µM) | target mRNA inhibition (HepG2, 10 µM) | target mRNA inhibition (HepG2, 20 µM) [%]
1 | AGGCATATACAAAAGTCTGA (sugars e5 d10 e5, PS) | 38% | – | – | –
2 | AGGCATGGAGCTCAGAGACT (sugars e3 d14 e3, PS) | 66% | – | – | –
3 | AGGCCAAGGACAGAGGTTCA (sugars e5 d10 e5, PS) | – | 60% and 51% | 81% and 87% | –
4 | AGGGAGGCCTTGCACTTACC (sugars e5 d10 e5, PS) | 13% | – | – | –
5 | AGGTTGTGTGTCTTCACCAG (sugars e3 d14 e3, PS) | 61% | – | – | –
6 | AGTTTCGGACCCACTGTGAC (sugars e5 d10 e5, PS) | 63% | – | – | –
7 | ATAATTTCTTTTAAATAACC (sugars e5 d10 e5, PS) | 0% | – | – | –
8 | ATCCAGTGCCCCATCTCCCA (sugars e5 d10 e5, PS) | 16% | – | – | –
9 | ATCCGGACTGAATGTCACCT (sugars e5 d10 e5, PS) | – | 80% and 72% | 84% and 91% | –
10 | ATGAGGGTCTTCATGGCTGA (sugars e5 d10 e5, PS) | 7% | – | – | –
11 | ATGGAGCTCAGAGACTCAGC (sugars e2 d13 e5, PS) | 73% | – | – | –
12 | ATGTATTTCTGGAACTTCTT (sugars e5 d10 e5, PS) | 45% | – | – | –
13 | ATTAGCAGTAGCTCAGGAGA (sugars e5 d10 e5, PS) | 48% | – | – | –
14 | ATTGCCACTCCCATTCTTTG (sugars e2 d13 e5, PS) | 53% | – | – | –
15 | ATTGCCACTCCCATTCTTTG (sugars e3 d14 e3, PS) | 40% | – | – | –
16 | ATTTCTTATCTTCAATCCTC (sugars e5 d10 e5, PS) | – | 57% | 95% | –
17 | CAAAAACATGACAGCCAGGG (sugars e5 d10 e5, PS) | – | 85% and 75% | 96% and 90% | –
18 | CAATGCCAATGCCTAGGTCA (sugars e5 d10 e5, PS) | – | 70% | 90% | –
19 | CAATGGGAATGGTATCGCAC (sugars e5 d10 e5, PS) | – | 68% and 62% | 93% and 85% | –
20 | CACCATTTTCACAAGGAGAA (sugars e5 d10 e5, PS) | – | 86% | 82% | –
21 | CACTGGAGCACTGAGATGAC (sugars e5 d10 e5, PS) | 27% and 48% | – | – | –
22 | CAGAATGAGACAGGCAGCCC (sugars e5 d10 e5, PS) | – | 37% | 82% | –
23 | CAGAGTTATCCTCAATTCAC (sugars e5 d10 e5, PS) | 34% | – | – | –

Row | Sequence | target mRNA inhibition (HepG2, 0.12 µM) | target mRNA inhibition (HepG2, 2.5 µM) | target mRNA inhibition (HepG2, 10 µM) | target mRNA inhibition (HepG2, 20 µM) [%]
24 | CAGATCTTCATTACATGATT (sugars e5 d10 e5, PS) | – | 71% | 89% | –
25 | CAGCAGATGATGTCCTGCCT (sugars e5 d10 e5, PS) | – | 66% | 88% | –
26 | CAGCAGGTTGTGTGTCTTCA (sugars e5 d10 e5, PS) | 66% and 75% | 16% and 39% | 63% and 79% | –
27 | CAGCAGTCTGCCTGATTCCC (sugars e5 d10 e5, PS) | – | 66% | 94% | –
28 | CAGCCAAGTGAAGTAGAGCA (sugars e5 d10 e5, PS) | 41% | – | – | –
29 | CAGCCTGGACAAGTCCTGCC (sugars e2 d13 e5, PS) | 72% | – | – | –
30 | CAGGAAGGCACAGAAAAGTG (sugars e5 d10 e5, PS) | 28% | – | – | –
31 | CAGGACCCACTGGAGCACTG (sugars e5 d10 e5, PS) | 80% | – | – | 83
32 | CAGGTAGAGTTCTATTGCTT (sugars e5 d10 e5, PS) | – | 68% and 55% | 89% and 82% | –
33 | CAGGTTCATCTGCCTTGACG (sugars e5 d10 e5, PS) | – | 69% | 72% | –
34 | CAGGTTGTGTGTCTTCACCA (sugars e5 d10 e5, PS) | 68% and 76% | – | 74% | 87
35 | CAGTGCCTACAGCAGAGGGA (sugars e5 d10 e5, PS) | 0% | – | – | –
36 | CAGTGCTTTCTAAGTACCCT (sugars e5 d10 e5, PS) | – | 68% and 69% | 91% and 86% | –
37 | CAGTGGGCCCCAGGTGGCTC (sugars e5 d10 e5, PS) | 46% | – | – | –
38 | CATACTGGCATCTGGCAGGG (sugars e5 d10 e5, PS) | – | 65% | 83% | –
39 | CATTCTTTGAAAGCAAATAG (sugars e5 d10 e5, PS) | 15% | – | – | –
40 | CATTGCCACTCCCATTCTTT (sugars e3 d14 e3, PS) | 46% | – | – | –
41 | CCAACTCTCAGCTACTCCCC (sugars e5 d10 e5, PS) | – | 95% | 79% | –
42 | CCACAGGGCCCTTTCCAGAA (sugars e5 d10 e5, PS) | – | 58% and 53% | 87% and 85% | –
43 | CCACTGGAGCACTGAGATGA (sugars e3 d14 e3, PS) | 62% | – | – | –
44 | CCAGCTGGATGGGAAAGTAG (sugars e5 d10 e5, PS) | 24% | – | – | –
45 | CCAGGGCCTCCATGTACATG (sugars e2 d13 e5, PS) | 69% | – | – | –
